Literature values, collected in patent US20250312278A1, “BRIVARACETAM PHARMACEUTICAL COMPOSITION, PREPARATION METHOD THEREFOR AND USE THEREOF” (SHANGHAI BOCIMED PHARMACEUTICAL CO., LTD., priority 2020, published 2025).
Values after ≈ are worked out from the molar mass of the structure shown. Like-named read-outs stand apart in the source and are kept apart here.

What was measured:
[1] = in vivo

CCC[C@@H]1CC(=O)N(C(CC)C(N)=O)C1 (stereo partly drawn) [Brivaracetam, (2S)-2-[(4R)-2-oxo-4-propyltetrahydron-1H-pyrro-1-yl] butanamide]
solubility (buffer solution with a pH of 4.5): 850 mg/mL (≈ 4000 mM)
solubility (buffer solution with a pH of 7.4): 840 mg/mL (≈ 3960 mM)
solubility (hydrochloric acid solution with a pH of 1.2): 850 mg/mL (≈ 4000 mM)
solubility (water): 700 mg/mL (≈ 3300 mM)
terminal half-life period [1]: 9 h
